Assays:
[1] = Tissue and plasma proteome profiling of 1a-treated CT26-bearing mice; assay type: in vivo, BALB/c mice; settings: 10 mg kg^−1, five days
Excerpt: On day five, tumour, liver and blood were harvested two hours after the last injection of 1a. Blood plasma and livers were harvested to obtain insight into systemic drug effects and tumours were collected to obtain information about local effects of the candidate drug.
For proteomic workup, the fresh tissue samples were quickly rinsed with PBS and shock-frozen in liquid nitrogen. Blood plasma was immediately prepared by centrifugation of the collected blood in ethylenediaminetetraacetic acid (EDTA) tubes. The samples were analysed in technical duplicates due to the expected larger heterogeneity and statistical evaluation was performed using the LIMMA algorithm[73] and gene set variation analysis (GSVA).[74] […] Statistical significance was calculated based on multi-parameter testing-adjusted P-values […].
(§1) Animals. All experiments were carried out with male Balb/c mice according to the regulation of the Ethics Committee for the Care and Use of Laboratory Animals at the Medical University Vienna (BMWF-2022-0.770.291), the guidelines from the Austrian Animal Science Association and the Federation of European Laboratory Animal Science Associations (FELASA). The animals were kept in a pathogen-free conditions, controlled environment with 12 h light–dark cycle with ad libitum access to food and water. Every procedure was done in a laminar airflow […]
(§2) Treatment. CT-26 cells ([…] in 50 μL serum-free medium) were injected subcutaneously (s.c.) into the right flank of ten– to eleven-week-old male Balb/c mice. Three days after cell injection, all compounds (dissolved in 10% DMSO in water) were administered […]
In case of the proteomic profiling […]
in water for 5 consecutive days. On the last day, 2 h after the last treatment, mice were euthanized, and blood was collected in an EDTA tube via heart punctation. Tumours and livers were harvested, quickly rinsed with PBS and snap-frozen in liquid nitrogen. Blood plasma was obtained by centrifugation (2×10 min at 900 g). […]
Sample Processing. All steps were performed on ice. The frozen tissue samples (weights ranging from 8.6– 51.5 mg) were transferred to 15 mL Falcon tubes containing 150 µL sodium deoxycholate lysis buffer (SDC; 0.4 g SDC, 500 μL Tris∙HCl (pH 8.8) in 9.5 mL H2O) and homogenized with a sonication probe (Bandelin Sonoplus HD 2070; Bandelin Electronic GmbH & Co. KG, Berlin, Germany). After sonication the homogenates were centrifuged at 10.000 g for 5 minutes and the resulting supernatant was transferred to new reaction tubes. […]
EDTA-anticoagulated plasma samples were diluted in SDC buffer at a ratio of 1 : 20, heated at 95 °C for 5 min and stored at –20 °C. The protein concentration of each sample was determined using a BCA assay. […]

[2] = Histological evaluation of liver (H&E); assay type: in vivo, BALB/c mice; settings: 10 mg kg^−1 i.p., five consecutive days
Description: Liver tissue for histological assessment was fixed with formaldehyde and then paraffin-embedded. Haematoxylin and eosin (H&E) was used to stain tissue slices.
as §1, §2
1b/2b. Regarding anticancer activity experiments, mice were treated on 5 consecutive days over 2 weeks. Four hours after the last treatment 1a-treated mice were sacrificed and analysed for ruthenium levels in tissue via ICP-MS measurements. In case of the proteomic profiling […]
in water for 5 consecutive days. On the last day, 2 h after the last treatment, mice were euthanized, and blood was collected in an EDTA tube via heart punctation. […]

[3] = system: SW480 cancer cells; test: Cell cycle analysis by flow cytometry (propidium iodide); assay type: cell-based, human; settings: 24 h; 1a 12.5 to 50 nM; gemcitabine 10 nM

CCC1=C2[O][Ru][O]C2(n2cccn2)c2ccccc2C1=O.Cc1ccc(C(C)C)cc1 (stereo not drawn) [Compound 1a, [(3-ethyl-4-oxo-(pyrazolyl)-dihydronaphthalene)(cymene)ruthenium(II)]]
EGFR level in tumour [1]: down-regulated | statistically significant regulations, plasma ([1]; of 285 identified): 79 | statistically significantly regulated proteins, liver ([1]; of 2770 identified): 14 | statistically significant regulations, tumour ([1]; of 3867 identified): 5 | liver histology (H&E) [2]: largely healthy physiology | cell cycle distribution [3]: dose-dependent increase in the S and G2/M phases

From paper PMC12320299 (Chemical Science, 2025)
